Laboratory results published in ChEMBL document CHEMBL1201862, “PubChem BioAssay data set” (2004).
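Step 1: Grow cells in 96-well plates. Step 2: Expose to compound for 48 hours at 5 concentrations. Step 3: Interpolate endpoints linearly; if unreached, use highest concentration. GI50 is the concentration that inhibits growth by half.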 Activity calls are given as the source filed them. Cut-off read from the data, not from the text of the source: active = GI50 up to about 1.1 µM and inactive = higher.

How the values were obtained:
Test in all cases: inhibition of tumour cell growth, NCI panel, 48 h
786-0 = system: 786-0
BT-549 = system: BT-549
CCRF-CEM = system: CCRF-CEM
HCT-15 = system: HCT-15
IGROV-1 = system: IGROV-1
K562 = system: K562
MDA-N = system: MDA-N
MOLT-4 = system: MOLT-4
Malme-3M = system: Malme-3M
NCI-H522 = system: NCI-H522
OVCAR-3 = system: OVCAR-3
OVCAR-5 = system: OVCAR-5
OVCAR-8 = system: OVCAR-8
RPMI-8226 = system: RPMI-8226
SF-295 = system: SF-295
SK-MEL-2 = system: SK-MEL-2
SK-MEL-5 = system: SK-MEL-5
SR = system: SR
A549 = system: A549
UO-31 = system: UO-31

Row | SMILES | GI50 (786-0) | GI50 (BT-549) | GI50 (CCRF-CEM) | GI50 (HCT-15) [µM] | GI50 (IGROV-1) | GI50 (K562) | GI50 (MDA-N) | GI50 (MOLT-4) | GI50 (Malme-3M) | GI50 (NCI-H522) | GI50 (OVCAR-3) | GI50 (OVCAR-5) | GI50 (OVCAR-8) | GI50 (RPMI-8226) | GI50 (SF-295) | GI50 (SK-MEL-2) | GI50 (SK-MEL-5) | GI50 (SR) | GI50 (A549) | GI50 (UO-31)
1 | CCOc1cc(NC(C)=O)ccc1C(=O)N/N=C/c1ccco1 | > 100 µM (inactive) | > 100 µM (inactive) | 39.3 µM (inactive) | > 100 | 94 µM (inactive) | 4.05 µM (inactive) | > 100 µM (inactive) | 20.9 µM (inactive) | > 100 µM (inactive) | > 100 µM (inactive) | > 100 µM (inactive) | > 100 µM (inactive) | > 100 µM (inactive) | 78.3 µM (inactive) | > 100 µM (inactive) | > 100 µM (inactive) | > 100 µM (inactive) | 9.95 µM (inactive) |  | 
2 | COc1ccc(N2C(=O)c3cc([N+](=O)[O-])cnc3S2(=O)=O)cc1 | > 100 µM (inactive) | > 100 µM (inactive) | > 100 µM (inactive) | > 100 | > 100 µM (inactive) | > 100 µM (inactive) | > 100 µM (inactive) | > 100 µM (inactive) | > 100 µM (inactive) | > 100 µM (inactive) | > 100 µM (inactive) | > 100 µM (inactive) | > 100 µM (inactive) | > 100 µM (inactive) | > 100 µM (inactive) | > 100 µM (inactive) |  | > 100 µM (inactive) | > 100 µM (inactive) | > 100 µM (inactive)
3 | CCNc1ncnc2sc(SCc3ccccc3)nc12 | > 100 µM (inactive) | > 100 µM (inactive) | 33.9 µM (inactive) | > 100 | > 100 µM (inactive) | 81.7 µM (inactive) | > 100 µM (inactive) | 25.9 µM (inactive) | > 100 µM (inactive) | 62.2 µM (inactive) | > 100 µM (inactive) | > 100 µM (inactive) | 80.9 µM (inactive) | 43.3 µM (inactive) | 89.5 µM (inactive) | > 100 µM (inactive) | 25.6 µM (inactive) | 33.8 µM (inactive) | 36.5 µM (inactive) | 36.8 µM (inactive)
4 | C(=N\c1nc2cc3sc(/N=C/c4ccccc4)nc3cc2s1)/c1ccccc1 | > 100 µM (inactive) | 54.2 µM (inactive) | 2.49 µM (inactive) | 46 | > 63.2 µM (inactive) | 29.1 µM (inactive) | > 100 µM (inactive) | 9.75 µM (inactive) | > 65.3 µM (inactive) | 17.1 µM (inactive) | > 85.3 µM (inactive) | > 69.2 µM (inactive) | > 66.2 µM (inactive) | 29.7 µM (inactive) | > 100 µM (inactive) | > 100 µM (inactive) | 25.5 µM (inactive) | 10.6 µM (inactive) | 9.66 µM (inactive) | 62.5 µM (inactive)
5 | CCN(CC)C(=S)SS(=O)(=O)c1ccccc1C(=O)O | > 100 µM (inactive) | > 100 µM (inactive) | 82 µM (inactive) | > 100 | > 100 µM (inactive) | > 100 µM (inactive) | > 100 µM (inactive) | 0.933 µM (active) | > 96.4 µM (inactive) | 2.67 µM (inactive) | > 100 µM (inactive) | > 100 µM (inactive) | > 100 µM (inactive) | > 100 µM (inactive) | > 88.5 µM (inactive) | > 100 µM (inactive) | > 60.7 µM (inactive) | 3.6 µM (inactive) | 10.8 µM (inactive) | > 94 µM (inactive)
6 | COc1ccc2[nH]c3c(c2c1)COc1ccccc1C3=O | > 100 µM (inactive) | 37.1 µM (inactive) | > 100 µM (inactive) | > 100 | > 100 µM (inactive) | > 100 µM (inactive) | > 100 µM (inactive) | > 100 µM (inactive) | > 100 µM (inactive) | > 100 µM (inactive) | > 100 µM (inactive) | > 100 µM (inactive) | > 100 µM (inactive) | > 100 µM (inactive) | > 100 µM (inactive) | 34.8 µM (inactive) | > 100 µM (inactive) | > 100 µM (inactive) | > 100 µM (inactive) | > 100 µM (inactive)
7 | CC1(C)CCC[C@@]2(C)C1CC[C@@]1(CO1)[C@@H]2/C=C\C(C=O)CC=O (stereo partly specified) | > 75.3 µM (inactive) | > 100 µM (inactive) | 17.3 µM (inactive) | 73.6 | > 100 µM (inactive) | 26.5 µM (inactive) | > 87.9 µM (inactive) | 21.5 µM (inactive) | > 100 µM (inactive) | 42.4 µM (inactive) | > 100 µM (inactive) | > 100 µM (inactive) | > 100 µM (inactive) | 10.9 µM (inactive) | > 100 µM (inactive) | > 100 µM (inactive) | > 100 µM (inactive) | 37.6 µM (inactive) | > 100 µM (inactive) | > 94.8 µM (inactive)
8 | C/C(=C\c1ccccc1)C(=O)NCc1ccc(C(=O)NCCc2ccccc2)cc1 | 20.6 µM (inactive) | 28.9 µM (inactive) | > 100 µM (inactive) | > 100 | 35.8 µM (inactive) | > 100 µM (inactive) | > 100 µM (inactive) | > 100 µM (inactive) | > 100 µM (inactive) | > 100 µM (inactive) | > 100 µM (inactive) | > 96.2 µM (inactive) | 3.47 µM (inactive) | > 100 µM (inactive) | 27.7 µM (inactive) | 20.9 µM (inactive) | > 100 µM (inactive) | > 100 µM (inactive) | > 100 µM (inactive) | 22 µM (inactive)
9 | CN1C(=O)[C@](C)(Cc2ccc(F)cc2)N(C(=O)OC(C)(C)C)[C@@H]1C(C)(C)C | 29.3 µM (inactive) | 34.4 µM (inactive) | 40.9 µM (inactive) | 37.8 | 43.9 µM (inactive) | 25.6 µM (inactive) | 37.4 µM (inactive) | 17.9 µM (inactive) | > 100 µM (inactive) | 23.1 µM (inactive) | 31.5 µM (inactive) | > 100 µM (inactive) | 28.8 µM (inactive) | 22.4 µM (inactive) | 20.3 µM (inactive) | 31.3 µM (inactive) | 19.6 µM (inactive) | 21.2 µM (inactive) | 42.4 µM (inactive) | 33.6 µM (inactive)
10 | Nc1ccc(C(=O)N/C(=C\c2cccc([N+](=O)[O-])c2)c2nc3c(O)nc(S)nc3[nH]2)cc1 | 24.5 µM (inactive) | > 100 µM (inactive) | > 100 µM (inactive) | > 100 | 55.1 µM (inactive) | > 100 µM (inactive) | > 100 µM (inactive) | > 56.2 µM (inactive) | > 100 µM (inactive) | > 100 µM (inactive) | > 100 µM (inactive) | > 100 µM (inactive) | 31 µM (inactive) | > 100 µM (inactive) | 37.3 µM (inactive) | 53.7 µM (inactive) | > 100 µM (inactive) | > 100 µM (inactive) | 74.3 µM (inactive) | 30.3 µM (inactive)
11 | [N-]=[N+]=Nc1cc(=O)[nH]c2ccccc12 | > 100 µM (inactive) | 83.2 µM (inactive) | > 100 µM (inactive) |  | 31.9 µM (inactive) | > 100 µM (inactive) | > 100 µM (inactive) | 92.5 µM (inactive) | 94.6 µM (inactive) | > 100 µM (inactive) | 65.2 µM (inactive) | > 100 µM (inactive) | > 100 µM (inactive) | 81.8 µM (inactive) | > 100 µM (inactive) | > 100 µM (inactive) | > 100 µM (inactive) | 41.3 µM (inactive) | > 100 µM (inactive) | 31.4 µM (inactive)
12 | O=C(Cc1ccccc1F)NC1=C(Cl)C(=O)c2ccccc2C1=O | 3.09 µM (inactive) | 1.36 µM (inactive) | 0.428 µM (active) | 0.54 | 1.46 µM (inactive) | 0.611 µM (active) | 2.78 µM (inactive) | 1.06 µM (active) | 1.35 µM (inactive) | 0.29 µM (active) | 0.621 µM (active) | 4.08 µM (inactive) | 2.16 µM (inactive) | 0.436 µM (active) | 2.85 µM (inactive) | 0.652 µM (active) | 1.06 µM (active) | 0.578 µM (active) | 2.51 µM (inactive) | 0.723 µM (active)
13 | Cc1ccc(NC(=O)CC(=O)N2N=C(N(C)c3ccccc3)CC2c2ccccc2)cc1 (stereo unspecified) | > 100 µM (inactive) | > 100 µM (inactive) | > 100 µM (inactive) | > 100 | > 100 µM (inactive) | > 100 µM (inactive) | > 100 µM (inactive) | > 100 µM (inactive) | > 100 µM (inactive) | > 100 µM (inactive) | > 100 µM (inactive) | > 100 µM (inactive) | 58.7 µM (inactive) | > 100 µM (inactive) | > 100 µM (inactive) | > 100 µM (inactive) | > 100 µM (inactive) | > 100 µM (inactive) | > 100 µM (inactive) | > 100 µM (inactive)
14 | c1nnc(NCNc2nncs2)s1 | 46.8 µM (inactive) | > 100 µM (inactive) | 61.1 µM (inactive) | 40.2 | 49.1 µM (inactive) | 42.8 µM (inactive) | 35.2 µM (inactive) | 29.6 µM (inactive) | > 100 µM (inactive) | 48.1 µM (inactive) | 21.5 µM (inactive) | 79.3 µM (inactive) | 69.5 µM (inactive) | 72.6 µM (inactive) | 28.1 µM (inactive) | 68.9 µM (inactive) | 62.2 µM (inactive) | 36.8 µM (inactive) | 23.6 µM (inactive) | 53.3 µM (inactive)
